# Values joined by “and” are separate entries in the source; they are usually repeats but may differ in a detail not shown here. Equal values may be shown once.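 Cells were grown in 96-well plates and exposed to each compound for 48 hours at five concentrations; endpoints were interpolated linearly between bracketing concentrations, or set to the highest concentration if not reached. Abbreviation: GI50, concentration required for 50% inhibition of growth. TGI: total growth inhibition.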
# Test system: MDA-MB-468 breast
# Assay: inhibition of tumour cell growth, NCI panel, 48 h
SMILES,GI50,TGI
COc1ccc(C(=O)N2N=C(c3ccc(Br)cc3)CC2c2cn(-c3ccccc3)nc2-c2ccccc2)cc1 (stereo not drawn),6590 nM,> 50000 nM
CN1CCN(CCCOc2ccc3ncnc(Nc4ccc(OCc5cccc(F)c5)c(Cl)c4)c3c2)CC1,367 nM,1840 nM
Cn1ccnc1C(=O)/C=C/c1ccc(C(=O)Nc2ccc(F)cc2)cc1,813 nM,3060 nM
CC(C)c1ccc(COCc2cc(CN3CCCC3)c(O)c3ncccc23)cc1,401 nM,1880 nM
Cc1ccc2c(c1)C(=O)C(c1c(-c3[nH]c(=O)c4ccc(C)cc4c3O)c(O)c3ccccc3c1O)=NC2=O,313 nM,987 nM
c1ccc(-c2n(Cc3ccc4ccccc4n3)cc[n+]2Cc2ccc3ccccc3n2)cc1,221 nM,1430 nM
CCOC(=O)c1cnc2c(C)cc(C)cc2c1NCCCN(C)C,2000 nM,8450 nM
Cc1ccc(C2CC(c3cccc(Nc4ccncc4)c3)=NN2c2cc(Cl)cc(Cl)c2)cc1 (stereo not drawn),1410 nM,2840 nM
COc1cc(Cl)cc(-c2nn(-c3cccc(NC(=O)c4cccc(C(F)(F)F)c4)c3)cc2-c2ccncc2)c1,4260 nM,> 100000 nM
CC[C@H](C)[C@H](NC(=O)C12CC(NC)(C1)C2)C(=O)N(C)[C@H](C[C@@H](OC(C)=O)c1nc(C(=O)N[C@@H](Cc2ccccc2)C[C@H](C)C(=O)OC)cs1)C(C)C,59.1 nM,2260 nM
N#C/C(=C\c1ccc2c(c1)OCO2)n1nnc2ccccc21,555 nM,7980 nM
COc1cccc(CNCCN2C(=O)c3ccc4c5c(ccc(c35)C2=O)C(=O)N(CCNCc2cccc(OC)c2)C4=O)c1,1760 nM,3560 nM
COc1cc(/C=C\c2cc(/C=C\c3ccc(O)c(OC)c3)n(C(=O)COc3ccc(Cl)cc3Cl)n2)ccc1O,1990 nM,5340 nM
CCOC(=O)c1c(NC(=O)c2cccc(C(F)(F)F)c2)sc2c(CN3CCN(C)CC3)c(O)ccc12,1650 nM,3250 nM
CN1CCN(CCOc2ccc(-c3cnc4c(-c5cccc(F)c5F)cnn4c3)cc2)CC1,1450 nM,3060 nM
CC(=O)O[C@H]1C[C@H](O[C@H]2[C@@H](O)C[C@H](O[C@H]3[C@@H](O)C[C@H](O[C@H]4CC[C@@]5(C)C(CCC6C5C[C@@H](O)[C@]5(C)[C@@H](C7=CC(=O)OC7)CC[C@]65O)C4)O[C@@H]3C)O[C@@H]2C)O[C@H](C)[C@H]1O[C@@H]1O[C@H](CO)[C@@H](O)[C@H](O)[C@H]1O (stereo partly drawn),85.6 nM and 220 nM,223 nM and 577 nM
CCn1cc(C2NC(=O)c3ccccc3N2)c2cccc(C)c21 (stereo not drawn),216 nM,656 nM
COC(=O)c1ccc2[nH]c(O)c(C(=Nc3ccc(N(C)C(=O)CN4CCN(C)CC4)cc3)c3cccc(OC)c3)c2c1,1440 nM,3500 nM
N#Cc1c(NC(=O)c2cccc(C(F)(F)F)c2F)sc2c1CCC(=O)C2,292 nM,1030 nM

SMILES,GI50,TGI
CN(C)c1ccc2nc3ccc(=[N+](C)C)c([N+](=O)[O-])c-3sc2c1,1410 nM,3350 nM
COc1ccc(-c2nc(S(=O)(=O)c3ccccc3)c(S(=O)CC(=O)N3CCC(C)CC3)o2)cc1 (stereo not drawn),1630 nM,4650 nM
C[C@H](Nc1ccc2c(c1)OCCn1cc(N3C(=O)OC[C@H]3C(F)F)nc1-2)C(N)=O,343 nM,6270 nM
O=C1/C(=C/c2ccc(Cl)cc2Cl)CN(S(=O)(=O)c2ccccc2)C/C1=C\c1ccc(Cl)cc1Cl,687 nM,2730 nM
COc1ccc2c(c1)c(-c1nonc1-c1cn(C)c3ccccc13)cn2C,330 nM,–
[Cl][Ru].c1ccc(-c2cc(-c3ccccn3)nc(-c3ccccn3)c2)cc1.c1ccc(-c2ccnc3c2ccc2c(-c4ccccc4)ccnc23)cc1,208 nM,635 nM
O=C1Nc2ccccc2/C1=C/C(=N/c1nnc(-c2ccc(Cl)cc2)s1)c1ccccc1,2020 nM,6270 nM
COc1cc2c(Nc3ccc(Cl)c(Cl)c3F)ncnc2cc1OCC1C[C@@H]2CN(C)C[C@@H]2C1 (stereo partly drawn),24.1 nM and 21.7 nM and 21.2 nM,175 nM and 633 nM and 213 nM
CCOC(=O)C(=Cc1ccc(-c2ccccc2)cc1)C(=O)OCC,3240 nM,10100 nM
O=S(=O)(Nc1cccc(Cl)c1)c1ccc(-c2cnc(C3CC3)o2)cc1,411 nM,12200 nM
C=C1CC[C@@H]2C(C)(C)[C@H](O)CC[C@@]2(C)[C@@H]1COc1ccc2ccc(=O)oc2c1,20500 nM,78200 nM
O=C(c1ccccc1)N(C(=S)NCCc1ccc(Cl)cc1)c1ccc(Cl)cc1,5410 nM,33400 nM
C=C1C(=O)O[C@H]2[C@H]1CC/C(COC(=O)NCc1ccc(Cn3c(=O)sn(CCCC)c3=O)cc1)=C\CC[C@@]1(C)O[C@@H]21,1730 nM,3630 nM
COc1ccc(OC)c(N(CCN2C(=O)c3ccccc3C2=O)C(=O)CCl)c1,4430 nM,22000 nM
Cc1cc(Cl)ccc1Nc1nc(C(F)(F)F)ccc1C(=O)N/N=C/c1cccc(O)c1,1510 nM,9690 nM
Cc1cc2nc(CS)[nH]c2cc1C,13000 nM,30400 nM
COc1ccc2cnc(N)c(C#Cc3cc(C(=O)Nc4ccc(CN5CCN(C)CC5)c(C(F)(F)F)c4)cnc3C)c2c1,8830 nM,27600 nM
CCOc1cc2ncc(C#N)c(Nc3ccc(F)c(Cl)c3)c2cc1NC(=O)CC1CCSS1 (stereo not drawn),473 nM,1170 nM

# Source: PubChem BioAssay (NCI)
